Results: article PMC6542793, “The identification of small molecule inhibitors of the plant inositol phosphorylceramide synthase which demonstrate herbicidal activity” (Scientific Reports, 2019)
Values joined by “and” are separate entries in the source; they are usually repeats but may differ in a detail not shown here. Identical values can stand only once. “Also recorded” adds a separate entry of the source. Starred links: 1 amine or outer side, 2 acyl side, 3 side chain; linkers in the order of their positions; H or OH if unused. Non-standard residues stand in square brackets, D forms with d. Residues, ends and D or L forms follow the SMILES beside them. X1 = CC[C@@H](C)[C@@H](O[*:1])C(=O)[*:2]; NMeVal(β-OH) = CN[C@H](C(=O)O)C(C)(C)O; NMeF = CN[C@@H](Cc1ccccc1)C(=O)O; aIle = CC[C@@H](C)[C@H](N)C(=O)O; NMeV = CN[C@H](C(=O)O)C(C)C

What was measured:
fungal IPCS = test system: fungal IPCS; set-up: method as in PMID 8593016, PMID 9405490, PMID 9614099, PMID 17420565, PMID 19644519; conditions: inhibitors of the fungal IPCS; cited from earlier work
Aur1p [1] = biological target: T1, Aur1p (Saccharomyces cerevisiae, UniProt P36107); assay: HPTLC in vitro IPCS assay of microsomal extracts, NBD-IPC production (Aur1p); type: biochemical; conditions: presence vs absence of AbA
T1 construct: The complete open reading frames of AtIPCS2 and AUR1p were amplified from cDNA or GenEZ ORF Clones; made in house; microsomal membranes
T1 sequence (P36107 1-401): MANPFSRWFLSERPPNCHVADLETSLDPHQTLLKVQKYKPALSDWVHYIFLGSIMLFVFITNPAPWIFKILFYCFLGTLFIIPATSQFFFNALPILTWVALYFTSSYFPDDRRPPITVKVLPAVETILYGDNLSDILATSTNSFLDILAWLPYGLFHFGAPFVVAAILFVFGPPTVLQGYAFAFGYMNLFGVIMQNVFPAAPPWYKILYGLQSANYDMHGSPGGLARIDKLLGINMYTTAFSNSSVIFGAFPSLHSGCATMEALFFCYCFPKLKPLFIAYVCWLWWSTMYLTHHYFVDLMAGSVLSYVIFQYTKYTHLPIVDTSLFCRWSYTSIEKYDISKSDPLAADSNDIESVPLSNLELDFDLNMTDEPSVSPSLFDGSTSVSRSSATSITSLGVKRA
T1 sequence (Q06346 1-221 partner): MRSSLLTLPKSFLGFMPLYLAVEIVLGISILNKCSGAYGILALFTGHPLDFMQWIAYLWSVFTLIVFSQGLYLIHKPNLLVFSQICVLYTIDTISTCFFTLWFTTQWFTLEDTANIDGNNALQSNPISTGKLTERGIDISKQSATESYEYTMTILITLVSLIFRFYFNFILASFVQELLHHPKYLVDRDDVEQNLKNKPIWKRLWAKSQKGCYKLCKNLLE
Protocol: Microsomal material was prepared from MSY23-3C pESC-LEU_AtIPCS2 and MSY23-3C pESC-LEU_AUR1 as previously described[33]. IPCS turnover was assayed using HPTLC (Merck) and imaged using a Fuji FLA−3000 reader and AIDA Image Analyser® software (version 3.52) as previously described[17].

AtIPCS2 [2] = biological target: T2, AtIPCS2 (Arabidopsis thaliana, UniProt Q9SH93); assay: HPTLC in vitro IPCS assay of microsomal extracts, NBD-IPC production (AtIPCS2); type: biochemical; conditions: presence vs absence of AbA
T2 construct: The complete open reading frames of AtIPCS2 and AUR1p were amplified from cDNA or GenEZ ORF Clones; made in house; microsomal membranes
T2 sequence (Q9SH93 1-305): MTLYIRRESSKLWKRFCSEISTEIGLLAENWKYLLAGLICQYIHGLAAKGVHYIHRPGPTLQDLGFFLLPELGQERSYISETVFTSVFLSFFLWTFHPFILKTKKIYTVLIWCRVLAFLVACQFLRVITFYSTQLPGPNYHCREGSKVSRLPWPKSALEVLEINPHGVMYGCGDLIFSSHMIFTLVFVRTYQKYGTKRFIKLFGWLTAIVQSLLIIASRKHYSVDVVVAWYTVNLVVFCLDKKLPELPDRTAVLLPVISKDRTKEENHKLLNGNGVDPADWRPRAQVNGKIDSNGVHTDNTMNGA
Protocol: In the quadruple pdr1∆ pdr3∆ pdr16∆ pdr17∆ strain, AUR1 was deleted and replaced by a HIS3 selectable marker, with growth supported by expression of the essential AUR1 gene from the plasmid pRS316-AUR1 under uracil selection. […] (Fig. 2).
Figure 2 HPTLC separation of in vitro assayed Aur1p and AtIPCS2 showing the production of NBD-IPC in the presence (+) and absence (−) of AbA. […] NBD-Cer is the substrate, NBD-C6-phytoceramide.
Microsomal material was prepared from MSY23-3C pESC-LEU_AtIPCS2 and MSY23-3C pESC-LEU_AUR1 as previously described. IPCS turnover was assayed using HPTLC (Merck) and imaged using a Fuji FLA−3000 reader and AIDA Image Analyser® software (version 3.52) as previously described. Subsequently, a 96-well plate assay was formatted based on the protocol described by Mina et al.[17]. […] Following incubation for 60 minutes (or 40 minutes for MSY23-3C pESC-LEU_AUR1 membranes) at 30 °C the reaction was quenched by the addition of 200 µl methanol per well, the reaction product separated using exchange chromatography in 96-well filter plates (Millipore)[17] and the fluorescence measured at Ex460/Em540 using a fluorescence Microplate Reader (Biotek Synergy H4 with Gen5™). […]

Arabidopsis seedlings = assay: In vivo screening, Arabidopsis seedlings grown on agar; set-up: species or system A. thaliana (Col0)
Protocol: In vivo testing of the phenylamidine Compound 1 was undertaken against Arabidopsis seedlings grown on agar.
A. thaliana (Col0) seedlings were grown for 10 days on 0.8% Murashige and Skoog (MS) agar and then transferred to 1.2% MS agar containing compounds at the desired concentrations or DMSO as a control. Plants were grown at 20 °C under 16 hour day/8 hour night photoperiod.

Aur1p [3] = biological target: T1, Aur1p; assay: Secondary screening, 96-well plate microsomal in vitro IPCS enzyme assay (Aur1p control); type: biochemical
Protocol: (§1) In the secondary screening stage the previously described microsomal-based in vitro IPCS assay was adapted and utilised. Initially, all 106 selective hits from the primary screen were tested, in duplicate, at 10 µM.
(§2) Microsomal material was prepared from MSY23-3C pESC-LEU_AtIPCS2 and MSY23-3C pESC-LEU_AUR1 as previously described. IPCS turnover was assayed using HPTLC (Merck) and imaged using a Fuji FLA−3000 reader and AIDA Image Analyser® software (version 3.52) as previously described. Subsequently, a 96-well plate assay was formatted based on the protocol described by Mina et al.[17]. Following optimisation of substrate concentration and incubation time, each compound at the desired concentration (100 µM to 46 nM; in triplicate), was incubated in 96-well plates (Corning® Costar®) in phosphate buffer (71.4 mM, pH 7.0) with soybean PI (100 µM, final concentration, Avanti), NBD-C6-phytoceramide (15 µM; ThermoFisher) and microsomal membranes (0.3–0.4 Units[17]). Following incubation for 60 minutes (or 40 minutes for MSY23-3C pESC-LEU_AUR1 membranes) at 30 °C the reaction was quenched by the addition of 200 µl methanol per well, the reaction product separated using exchange chromatography in 96-well filter plates (Millipore)[17] and the fluorescence measured at Ex460/Em540 using a fluorescence Microplate Reader (Biotek Synergy H4 with Gen5™). […]

AtIPCS2 [4] = biological target: T2, AtIPCS2; assay: Secondary screening, 96-well plate microsomal in vitro IPCS enzyme assay (AtIPCS2); type: biochemical; conditions: AtIPCS2 IC50 (95% CI), microsomal membranes, dose response 100 µM to 46 nM, triplicate
Protocol: as §1, §2

CCCCCCCCCC[C@H](C)[C@@H](O)[C@@H](C)/C=C(C)/C=C(\C)C(=O)[C@H](C)/C=C(\C)C(=O)O[C@H](CO)[C@@H](O)[C@H](O)C(=O)O [khafrefungin]
IC50 against Saccharomyces cerevisiae (fungal IPCS): low nano-molar

CC[C@@H](C)[C@@H]1NC(=O)[C@@H]2CCCN2C(=O)[C@H](Cc2ccccc2)N(C)C(=O)[C@H](Cc2ccccc2)NC(=O)[C@H](C(C)C)N(C)C(=O)[C@@H]([C@H](C)CC)OC(=O)[C@H](C(C)(C)O)N(C)C(=O)[C@H](CC(C)C)NC(=O)[C@H](C(C)C)N(C)C1=O [aureobasidin A] (cyclo(F[NMeF]P[aIle][NMeV]L[NMeVal(β-OH)][X1][NMeV]))
sensitivity of Aur1p activity (NBD-IPC production) to the compound (Aur1p [1]): Only the fungal enzyme Aur1p is sensitive | IC50 against Saccharomyces cerevisiae (fungal IPCS): low nano-molar | sensitivity of AtIPCS2 activity (NBD-IPC production) to the compound (AtIPCS2 [2]): insensitive

pleofungin
IC50 against Saccharomyces cerevisiae (fungal IPCS): low nano-molar

rustimicin
IC50 against Saccharomyces cerevisiae (fungal IPCS): low nano-molar

Cc1cc(Oc2ccc(C#N)c(CC(C)(C)C)c2)c(C)cc1N=CN1CCCCC1 [Compound 1]
phenotype of treated seedlings (Arabidopsis seedlings; 7 day old seedlings on agar containing 10 and 40 µM, compared to DMSO control): clear purple patches associated with anthocyanin biosynthesis in response to stress[47], and an absence of lateral root development | effects on wild type Col-0 Arabidopsis seedlings, in words (Arabidopsis seedlings; in vivo screening, dose response): dose dependent effects with decreased lateral root development, and distinctive purple leaf patches; also recorded: induce the plant stress response | concentration at which treatment restricted growth and led to purple leaf patches (Arabidopsis seedlings; tested at 3.7, 11, 33 and 100 µM, compared to DMSO control): ≥ 11 µM | IC50 (Aur1p [3]): > 50 µM | IC50 (AtIPCS2 [4]): 4.02 µM and < 5 µM

haplofungin
IC50 against Saccharomyces cerevisiae (fungal IPCS): low nano-molar
